Measured values taken from US20190216848A1, “New Use of Product for Skin Treatment” (BioCool AB, priority 2016, published 2019).
Entries after “also recorded” stand apart in the source; their conditions may differ. Blank lines part the entries; values can stand above or below the molecule they belong to.

Columns and labels:
[1] = system: patients with acne vulgaris; conditions: references (9), (10), (12); cited from earlier work
[2] = system: patients diagnosed with moderate acne (Acne vulgaris); assay: Acne vulgaris pilot study: DLQ (Dermatology Life Quality Index) symptom rating; type: in vivo, human
From the text: (§1) Statistical Methods: Dropouts included in the result were 2 patients. These patients were followed up at the doctor's appointment number 2 and the results were included in the so-called “intention to treat” where the values produced two visits was the same for the coming weeks for follow-up visits. The statistical analysis used was t-test and Wilcoxon rank-sum test.
(§2) Each patient received the sodium percarbonate at home. […] This procedure was repeated daily by the patient. […] Follow-up visits occurred weekly for four weeks.
Photography: Each patient was photographed prior to initiation of treatment, and weekly for four weeks. Portrait photo is taken from the front and profile of each view of the face. Photos were taken with the same camera and camera settings and the same photographer. The same light was used by 45-degree angle. However, technology is not validated and all the photos were not taken exactly the same. Each patient was encoded by the study manager with a number. After all the photos were taken, outside observers (fellow doctor) counted the number of acne papule for each patient for each visit, without knowing the visit week during which the photo was taken. […] Results were calculated as an average of the number of acne papule for each visit at the group level. […] Even this was calculated with the average at group level. […]

[3] = system: patients diagnosed with moderate acne (Acne vulgaris); conditions: four weeks of treatment
Experimental: Treatment and follow-up: On the first visit to a doctor, patients received the same information and instructions as given by the manufacturer BioCool®. Each patient received the sodium percarbonate at home. The jars of powder were unmarked but if the patient wished to know the content they were informed. All processing was done at residences of the patient by the patient. 5 ml of sodium percarbonate was dissolved in 5 ml of water at a temperature of 35-40° C. to form a solution. The solution was applied to the face using the fingers, and washed away with tap water after 5 minutes. This procedure was repeated daily by the patient. After about one hour after the treatment the subjects could, if desired, lubricate the skin with a moisturizing product, allowing enough time for the skin pores to close up for any additional product. Follow-up visits occurred weekly for four weeks. At each visit, the patient had completed the rating scale DLQ (Dermatology Life Quality Index), they were photographed and subject to an open interview.
Interview: The patient's subjective experience was investigated with a semi-structured interview based on the query field (8). The interview was conducted by research doctors. […] No recording method was used.

[4] = Duration of effectiveness of the prepared aqueous solution; type: physicochemical; conditions: 1-5 g in 0.05-1 dl of water at 35-40° C.; effectiveness gradually decreases
Experimental: The solution obtained according to the method above is effective for about 24 h. […] A new solution must be prepared after 24 hours as the effectiveness of the singlet oxygen in the solution has decreased below an efficient level for treatment. The solution is to be applied to the face and/or affected skin at least once daily.

[5] = system: patients diagnosed with moderate acne (Acne vulgaris); assay: Acne vulgaris pilot study: blinded acne papule counting from photographs; type: in vivo, human
From the text: A study consisted of a total of 16 patients, 2 males and 14 females. Mean age was 28±7 years. The study included men and women, previously healthy, between 18-45 years, not using contraception, not breastfeeding or pregnant, and having been diagnosed with moderate acne. Patients with ongoing treatment for acne vulgaris were excluded or treatment was withdrawn one month before the start of the study. Also, patients who could not follow instructions and who were assumed to have poor compliance were excluded.
as §1, §2
Photography: Each patient was photographed prior to initiation of treatment, and weekly for four weeks. Portrait photo is taken from the front and profile of each view of the face. Photos were taken with the same camera and camera settings and the same photographer. The same light was used by 45-degree angle. However, technology is not validated and all the photos were not taken exactly the same. Each patient was encoded by the study manager with a number. After all the photos were taken, outside observers (fellow doctor) counted the number of acne papule for each patient for each visit, without knowing the visit week during which the photo was taken. The number of acne papules was summed up by frontal view, as well as by the two side views. Results were calculated as an average of the number of acne papule for each visit at the group level. DLQ survey summed with points for each patient for each visit. Even this was calculated with the average at group level.

[6] = system: individuals with diabetes and neuropathy, feet with moderate to severe skin conditions; assay: Diabetic Peripheral Neuropathy foot bath study: skin condition of the feet by photos; type: in vivo, human; conditions: for Condition of the feet / skin condition, visual (photos): all patients included, daily foot bath per study protocol, 6 weeks, preliminary results
Experimental: I. Improvement in skin condition evaluated by photos according to a pre-set scale (1-5): The target population include in this evaluation are adult individuals with diabetes and neuropathy, with feet with moderate to severe skin conditions 7.1.3 Frequency of application. Daily application for 6 weeks or until the signs and symptoms are cleared, then once a week. 1. Start by placing the feet in the footbath, containing 2-3 litres (about 1 gallon) of lukewarm water (about 38° C.). Measure out 15 ml (about 1 tbs.) of granules and add to the footbath. NB! The order is important, the feet must be in the bath before adding the granules. 2. Bathe the feet for about 20 minutes This is a 6-week, single centre, open label evaluation conducted in patients suffering from Diabetic Feet of neuropathic origin with moderate to severe non ulcer pathology (dry skin, cracks, callosities) 9.2 STUDY FLOW CHART visits 0 and 6 weeks for photos, skin evaluation, test protocol and evaluation of safety and concordance At each visit a required medical evaluations is performed at inclusion (0) and 6 weeks (+/−3 days). A photograph is performed and a test protocol is followed regarding skin condition. Any local and general intercurrent events (expected or unexpected) are recorded. Patients receive a patient care diary at their first visit. Investigators are allowed to see patients more frequently if required. 11.3 EVALUATION CRITERIA Improvement of skin condition evaluated by photos analysed by independent observers

microorganisms = conditions: within the range of 0.5-4% of hydrogen peroxide

SMILES: COc1ccc(-c2ccc3cc(C(=O)O)ccc3c2)cc1C12CC3CC(CC(C3)C1)C2 [Adapalene]
Number of acne papules / efficacy in literature study [1]: significant reduced
Safety / tolerance in literature study [1]: safe and effective

Time the prepared solution is effective [4]: about 24 h
SMILES: O=C([O-])[O-].O=C([O-])[O-].OO.OO.OO.[Na+].[Na+].[Na+].[Na+] [Sodium percarbonate, sodium percarbonate]
DLQ symptom rating, median ([2]; after 4 weeks of daily topical treatment, interquartile range 2, p 0.002): 1.5
DLQ symptom rating, median ([2]; before treatment (baseline), interquartile range 4): 3
Patients' description of their skin in interviews [3]: cleaner, smoother, softer and firmer
Number of acne papule over time (in words) ([5]; 4 weeks of treatment): clearly reduced; also recorded: significantly decreased
Papule count, mean ([5]; after 4 weeks of daily topical treatment (5 ml in 5 ml water, 5 minutes), SD 10.2, p <0.001 vs before): 18.3
Papule count, mean ([5]; before treatment (baseline), 16 patients, SD 12.4): 25.4
Time to apparent effect on the appearance of new papules ([5]; topical treatment of Acne vulgaris): ≤ 2 weeks
Condition of the feet (photos), patient No. 01 ([6]; FIG. 4, after 6 weeks of treatment): The large crack on the right heel has significantly improved
Condition of the feet (photos), patient No. 06 ([6]; FIG. 5, before vs after treatment): the ulcer has declined in size
Condition of the feet (photos), patient No. 9 ([6]; FIG. 6, before vs after treatment): the hardened patches are no longer present
Condition of the feet / skin condition, visual (photos) [6]: significant visual improvement
Condition of the feet / skin condition, visual (photos) ([6]; listed as sodium percarbonate): significant improvement of the skin condition

SMILES: O=C(OOC(=O)c1ccccc1)c1ccccc1 [benzoyl peroxide]
Number of acne papules / efficacy in literature study [1]: significant reduced
Safety / tolerance in literature study [1]: safe and effective

SMILES: OO [hydrogen peroxide]
Effect on killing off microorganisms with increasing concentration (microorganisms): practically the same
Number of acne papules / efficacy in literature study [1]: at least as good
Safety / tolerance in literature study [1]: better tolerance for skin
